Measured values taken from PubChem BioAssay (NCI).
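Each compound was tested at five concentrations against cells in 96-well plates for 48 hours. GI50: concentration for 50% inhibition of growth. Definition used: TGI = concentration required for complete inhibition of growth.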

How the values were obtained:
Test in all cases: NCI anticancer screen, dose series, 48 h
MALME-3M melanoma = system: MALME-3M melanoma
NCI-H522 lung = system: NCI-H522 lung
SR leukemia = system: SR leukemia
MDA-MB-468 breast = system: MDA-MB-468 breast
KM12 colon = system: KM12 colon
A498 renal = system: A498 renal
786-0 renal = system: 786-0 renal
SNB-75 CNS = system: SNB-75 CNS
U251 CNS = system: U251 CNS
UO-31 renal = system: UO-31 renal
HT29 colon = system: HT29 colon
SF-539 CNS = system: SF-539 CNS
CCRF-CEM leukemia = system: CCRF-CEM leukemia
HL-60(TB) leukemia = system: HL-60(TB) leukemia
DU-145 prostate = system: DU-145 prostate
MCF7 breast = system: MCF7 breast
TK-10 renal = system: TK-10 renal
BT-549 breast = system: BT-549 breast
A549 NSCLC = system: A549 NSCLC
M14 melanoma = system: M14 melanoma
HOP-62 NSCLC = system: HOP-62 NSCLC
SN12C renal = system: SN12C renal
NCI-H460 lung = system: NCI-H460 lung
OVCAR-3 ovarian = system: OVCAR-3 ovarian
HS 578T breast = system: HS 578T breast
HCT-116 colon = system: HCT-116 colon
HCC-2998 colon = system: HCC-2998 colon
HOP-92 NSCLC = system: HOP-92 NSCLC
CAKI-1 renal = system: CAKI-1 renal
MDA-MB-435 = system: MDA-MB-435
SK-MEL-28 melanoma = system: SK-MEL-28 melanoma
K-562 leukemia = system: K-562 leukemia
LOX IMVI melanoma = system: LOX IMVI melanoma
NCI-H226 lung = system: NCI-H226 lung
SK-OV-3 ovarian = system: SK-OV-3 ovarian
OVCAR-4 ovarian = system: OVCAR-4 ovarian
PC-3 prostate = system: PC-3 prostate
IGROV1 ovarian = system: IGROV1 ovarian
COLO 205 colon = system: COLO 205 colon
NCI-H23 lung = system: NCI-H23 lung
RXF 393 renal = system: RXF 393 renal
SK-MEL-5 melanoma = system: SK-MEL-5 melanoma
MOLT-4 leukemia = system: MOLT-4 leukemia
UACC-62 melanoma = system: UACC-62 melanoma
MDA-MB-231 breast = system: MDA-MB-231 breast
OVCAR-5 ovarian = system: OVCAR-5 ovarian
UACC-257 melanoma = system: UACC-257 melanoma
SF-268 CNS = system: SF-268 CNS
HCT-15 colon = system: HCT-15 colon
NCI/ADR-RES ovarian = system: NCI/ADR-RES ovarian
SW-620 colon = system: SW-620 colon
OVCAR-8 ovarian = system: OVCAR-8 ovarian
SF-295 CNS = system: SF-295 CNS
ACHN renal = system: ACHN renal
T-47D breast = system: T-47D breast
RPMI-8226 leukemia = system: RPMI-8226 leukemia
EKVX NSCLC = system: EKVX NSCLC
SNB-19 CNS = system: SNB-19 CNS

## CC[C@@]1(O)C(=O)OCc2c1cc1n(c2=O)Cc2c-1nc1cc(F)c(C)c3c1c2[C@@H](N)CC3
MALME-3M melanoma
  GI50: 0.011 µM
  TGI: 0.247 µM
NCI-H522 lung
  GI50: < 0.01 µM
  TGI: 0.0379 µM
SR leukemia
  GI50: < 0.01 µM
  TGI: > 100 µM
MDA-MB-468 breast
  GI50: < 0.01 µM
  TGI: < 0.01 µM
KM12 colon
  GI50: 0.0184 µM
  TGI: > 100 µM
A498 renal
  GI50: < 0.0107 µM
  TGI: 0.187 µM
786-0 renal
  GI50: < 0.01 µM
  TGI: < 0.037 µM
SNB-75 CNS
  GI50: < 0.01 µM
  TGI: 0.175 µM
U251 CNS
  GI50: < 0.01 µM
  TGI: 0.102 µM
UO-31 renal
  GI50: < 0.01 µM
  TGI: 0.0481 µM
HT29 colon
  GI50: < 0.01 µM
  TGI: 1.04 µM
SF-539 CNS
  GI50: < 0.01 µM
  TGI: < 0.01 µM
CCRF-CEM leukemia
  GI50: < 0.01 µM
HL-60(TB) leukemia
  GI50: < 0.01 µM
DU-145 prostate
  GI50: < 0.01 µM
  TGI: > 100 µM
MCF7 breast
  GI50: < 0.01 µM
  TGI: > 100 µM
TK-10 renal
  GI50: 0.0611 µM
  TGI: 3.18 µM
BT-549 breast
  GI50: < 0.01 µM
  TGI: 0.111 µM
A549 NSCLC
  GI50: < 0.01 µM
  TGI: 0.456 µM
M14 melanoma
  GI50: < 0.01 µM
  TGI: 0.0279 µM
HOP-62 NSCLC
  GI50: < 0.01 µM
  TGI: < 0.0494 µM
SN12C renal
  GI50: < 0.01 µM
  TGI: 0.145 µM
NCI-H460 lung
  GI50: < 0.01 µM
  TGI: 0.434 µM
OVCAR-3 ovarian
  GI50: 0.0368 µM
  TGI: 0.635 µM
HS 578T breast
  GI50: 0.221 µM
  TGI: > 100 µM
HCT-116 colon
  GI50: < 0.01 µM
  TGI: 11.5 µM
HCC-2998 colon
  GI50: 0.0129 µM
  TGI: 0.129 µM
HOP-92 NSCLC
  GI50: < 0.01 µM
  TGI: 0.192 µM
CAKI-1 renal
  GI50: < 0.01 µM
  TGI: 0.0741 µM
MDA-MB-435
  GI50: < 0.01 µM
  TGI: 0.625 µM
SK-MEL-28 melanoma
  GI50: 0.111 µM
  TGI: > 100 µM
K-562 leukemia
  GI50: < 0.01 µM
  TGI: > 100 µM
LOX IMVI melanoma
  GI50: < 0.01 µM
  TGI: 0.0101 µM
NCI-H226 lung
  GI50: < 0.01 µM
  TGI: < 0.0197 µM
SK-OV-3 ovarian
  GI50: < 0.01 µM
  TGI: 0.135 µM
OVCAR-4 ovarian
  GI50: 0.0325 µM
  TGI: > 100 µM
PC-3 prostate
  GI50: 0.0206 µM
  TGI: > 100 µM
IGROV1 ovarian
  GI50: 0.0261 µM
  TGI: 1.15 µM
COLO 205 colon
  GI50: 0.0393 µM
  TGI: 0.298 µM
NCI-H23 lung
  GI50: < 0.01 µM
  TGI: < 0.01 µM
RXF 393 renal
  GI50: < 0.01 µM
  TGI: < 0.0135 µM
SK-MEL-5 melanoma
  GI50: < 0.01 µM
  TGI: < 0.01 µM
MOLT-4 leukemia
  GI50: < 0.01 µM
UACC-62 melanoma
  GI50: < 0.01 µM
  TGI: 0.0146 µM
MDA-MB-231 breast
  GI50: 0.0285 µM
  TGI: 2.22 µM
OVCAR-5 ovarian
  GI50: < 0.0124 µM
  TGI: 0.801 µM
UACC-257 melanoma
  GI50: 0.0103 µM
  TGI: 0.166 µM
SF-268 CNS
  GI50: < 0.01 µM
  TGI: > 100 µM
HCT-15 colon
  GI50: 0.0146 µM
  TGI: 4.89 µM
NCI/ADR-RES ovarian
  GI50: < 0.01 µM
  TGI: 0.0213 µM
SW-620 colon
  GI50: < 0.01 µM
  TGI: 13.1 µM
OVCAR-8 ovarian
  GI50: < 0.01 µM
  TGI: 0.116 µM
SF-295 CNS
  GI50: < 0.01 µM
  TGI: 0.0425 µM

## N#Cc1c(-c2ccc(F)cc2)nc(SCc2ccccc2)nc1N1CCNCC1
MALME-3M melanoma
  GI50: 14.1 µM
  TGI: 28.2 µM
NCI-H522 lung
  GI50: 11.3 µM
  TGI: 25.1 µM
SR leukemia
  GI50: 1.92 µM
  TGI: 4.61 µM
MDA-MB-468 breast
  GI50: 6.71 µM
  TGI: 21.3 µM
KM12 colon
  GI50: 17.1 µM
  TGI: 32.8 µM
A498 renal
  GI50: 13.1 µM
  TGI: 27.3 µM
786-0 renal
  GI50: 11 µM
  TGI: 25.4 µM
U251 CNS
  GI50: 4.36 µM
  TGI: 16.1 µM
HT29 colon
  GI50: 3.3 µM
  TGI: 10.5 µM
SF-539 CNS
  GI50: 15.7 µM
  TGI: 29.4 µM
CCRF-CEM leukemia
  GI50: 13.9 µM
  TGI: 31 µM
HL-60(TB) leukemia
  GI50: 4.5 µM
  TGI: 17.3 µM
ACHN renal
  GI50: 14 µM
  TGI: 27.5 µM
DU-145 prostate
  GI50: 15 µM
  TGI: 29 µM
MCF7 breast
  GI50: 3.94 µM
  TGI: 15.3 µM
TK-10 renal
  GI50: 14.5 µM
  TGI: 28.4 µM
BT-549 breast
  GI50: 13 µM
  TGI: 26.4 µM
T-47D breast
  GI50: 10.1 µM
  TGI: 24.8 µM
A549 NSCLC
  GI50: 8.1 µM
  TGI: 21.5 µM
M14 melanoma
  GI50: 12 µM
  TGI: 24.8 µM
HOP-62 NSCLC
  GI50: 13.2 µM
  TGI: 28.1 µM
SN12C renal
  GI50: 13.8 µM
  TGI: 27.2 µM
RPMI-8226 leukemia
  GI50: 3.99 µM
  TGI: 17.5 µM
NCI-H460 lung
  GI50: 9.2 µM
  TGI: 22.9 µM
OVCAR-3 ovarian
  GI50: 14.3 µM
  TGI: 29.1 µM
HS 578T breast
  GI50: 14.1 µM
  TGI: 32 µM
HCT-116 colon
  GI50: 3.51 µM
  TGI: 11.6 µM
HCC-2998 colon
  GI50: 1.76 µM
  TGI: 3.22 µM
HOP-92 NSCLC
  GI50: 4.2 µM
  TGI: 18.1 µM
CAKI-1 renal
  GI50: 16 µM
  TGI: 29.7 µM
MDA-MB-435
  GI50: 16.9 µM
  TGI: 31.5 µM
SK-MEL-28 melanoma
  GI50: 16.3 µM
  TGI: 30.3 µM
K-562 leukemia
  GI50: 2.21 µM
  TGI: 5.42 µM
EKVX NSCLC
  GI50: 12 µM
  TGI: 24.8 µM
SNB-19 CNS
  GI50: 14.2 µM
  TGI: 29.3 µM
LOX IMVI melanoma
  GI50: 1.71 µM
  TGI: 3.33 µM
NCI-H226 lung
  GI50: 13.8 µM
  TGI: 33.4 µM
SK-OV-3 ovarian
  GI50: 16 µM
  TGI: 29.5 µM
OVCAR-4 ovarian
  GI50: 15.7 µM
  TGI: 34.2 µM
PC-3 prostate
  GI50: 11.8 µM
  TGI: 25.8 µM
IGROV1 ovarian
  GI50: 14.7 µM
  TGI: 28.9 µM
COLO 205 colon
  GI50: 1.66 µM
  TGI: 3.17 µM
NCI-H23 lung
  GI50: 15.1 µM
  TGI: 29.3 µM
RXF 393 renal
  GI50: 3.14 µM
  TGI: 14.8 µM
SK-MEL-5 melanoma
  GI50: 15.7 µM
  TGI: 29.2 µM
MOLT-4 leukemia
  GI50: 7.07 µM
  TGI: 21.2 µM
UACC-62 melanoma
  GI50: 14.4 µM
  TGI: 28.2 µM
OVCAR-5 ovarian
  GI50: 14.1 µM
  TGI: 27.6 µM
UACC-257 melanoma
  GI50: 13.1 µM
  TGI: 26.2 µM
SF-268 CNS
  GI50: 12.9 µM
  TGI: 29.1 µM
HCT-15 colon
  GI50: 5.05 µM
  TGI: 17.5 µM
NCI/ADR-RES ovarian
  GI50: 11.7 µM
  TGI: 27.4 µM
SW-620 colon
  GI50: 3.38 µM
  TGI: 13.1 µM
OVCAR-8 ovarian
  GI50: 6.21 µM
  TGI: 21.8 µM
SF-295 CNS
  GI50: 15.8 µM
  TGI: 30.1 µM
